Legend:
Assay in all cases: relative viability (nuclei count vs DMSO), 5 days (fraction); higher = more cells survive
LOU-NH91 = tested on: LOU-NH91
Summary of the method: (§1)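 Dosing by pin tool came one day after lung cancer cell lines were seeded in 1536-well plates, using either one drug or a fixed anchor-drug dose plus five library-drug doses (not always all listed) in √10 steps. After 5 days, nuclei were counted on 4× images. Relative viability is treated-well nuclei count divided by vehicle-well nuclei count, and values are medians of duplicate plates.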

NCI-H460 = tested on: NCI-H460
Summary of the method: as §1

LU99A = tested on: LU99A
Summary of the method: as §1

NCI-H2085 = tested on: NCI-H2085
Summary of the method: as §1

NCI-H1437 = tested on: NCI-H1437
Summary of the method: as §1

SK-LU-1 = tested on: SK-LU-1
Summary of the method: as §1

NCI-H838 = tested on: NCI-H838
Summary of the method: as §1

NCI-H1650 = tested on: NCI-H1650
Summary of the method: as §1

NCI-H1975 = tested on: NCI-H1975
Summary of the method: as §1

BEN = tested on: BEN
Summary of the method: as §1

NCI-H2342 = tested on: NCI-H2342
Summary of the method: as §1

NCI-H2023 = tested on: NCI-H2023
Summary of the method: as §1

NCI-H1734 = tested on: NCI-H1734
Summary of the method: as §1

NCI-H1563 = tested on: NCI-H1563
Summary of the method: as §1

NCI-H441 = tested on: NCI-H441
Summary of the method: as §1

NCI-H1651 = tested on: NCI-H1651
Summary of the method: as §1

COR-L23 = tested on: COR-L23
Summary of the method: as §1

NCI-H1355 = tested on: NCI-H1355
Summary of the method: as §1

NCI-H1793 = tested on: NCI-H1793
Summary of the method: as §1

CAL-12T = tested on: CAL-12T
Summary of the method: as §1

NCI-H358 = tested on: NCI-H358
Summary of the method: as §1

In the case of `CC(=O)O[C@@]12CO[C@@H]1C[C@H](O)[C@@]1(C)C(=O)[C@H](O)C3=C(C)[C@@H](OC(=O)[C@H](O)[C@@H](NC(=O)OC(C)(C)C)c4ccccc4)C[C@@](O)([C@@H](OC(=O)c4ccccc4)[C@H]21)C3(C)C` [Docetaxel] + CCNC(=O)c1noc(-c2cc(C(C)C)c(O)cc2O)c1-c1ccc(CN2CCOCC2)cc1 [Luminespib] (partner 0.01 µM), the relative viability (LOU-NH91; first compound 0.0002 µM) is reported as 0.299, the relative viability (LOU-NH91; first compound 0.000632 µM) is reported as 0.384 and the relative viability (LOU-NH91; first compound 0.002 µM) is reported as 0.299. For the same molecule, the relative viability (LOU-NH91; first compound 0.006325 µM) was 0.266, the relative viability (LOU-NH91; first compound 0.02 µM) was 0.212 and the relative viability (NCI-H460; first compound 0.0002 µM) was 0.032. The relative viability (NCI-H460; first compound 0.002 µM) was 0.0279, the relative viability (NCI-H460; first compound 0.006325 µM) was 0.025 and the relative viability (NCI-H460; first compound 0.02 µM) was 0.0187. For the same molecule, the relative viability (LU99A; first compound 0.0002 µM) was 0.218, the relative viability (LU99A; first compound 0.000632 µM) was 0.245 and the relative viability (LU99A; first compound 0.002 µM) was 0.23. The relative viability (LU99A; first compound 0.006325 µM) was 0.193, the relative viability (LU99A; first compound 0.02 µM) was 0.2 and the relative viability (NCI-H2085; first compound 0.0002 µM) was 0.378. It also gave a relative viability (NCI-H2085; first compound 0.000632 µM) of 0.454, a relative viability (NCI-H2085; first compound 0.002 µM) of 0.446 and a relative viability (NCI-H2085; first compound 0.006325 µM) of 0.322. It also gave a relative viability (NCI-H2085; first compound 0.02 µM) of 0.341, a relative viability (NCI-H1437; first compound 0.0002 µM) of 1.07 and a relative viability (NCI-H1437; first compound 0.000632 µM) of 1.09. For the same molecule, the relative viability (NCI-H1437; first compound 0.002 µM) was 0.277, the relative viability (NCI-H1437; first compound 0.006325 µM) was 0.234 and the relative viability (NCI-H1437; first compound 0.02 µM) was 0.167. For the same molecule, the relative viability (SK-LU-1; first compound 0.0002 µM) was 0.205, the relative viability (SK-LU-1; first compound 0.000632 µM) was 0.218 and the relative viability (SK-LU-1; first compound 0.006325 µM) was 0.193. For the same molecule, the relative viability (SK-LU-1; first compound 0.02 µM) was 0.159, the relative viability (NCI-H838; first compound 0.0002 µM) was 0.389 and the relative viability (NCI-H838; first compound 0.000632 µM) was 0.3. The relative viability (NCI-H838; first compound 0.002 µM) was 0.138, the relative viability (NCI-H838; first compound 0.006325 µM) was 0.147 and the relative viability (NCI-H838; first compound 0.02 µM) was 0.112. For the same molecule, the relative viability (NCI-H1650; first compound 0.0002 µM) was 0.22, the relative viability (NCI-H1650; first compound 0.000632 µM) was 0.212 and the relative viability (NCI-H1650; first compound 0.006325 µM) was 0.199. The relative viability (NCI-H1650; first compound 0.02 µM) was 0.193, the relative viability (NCI-H1975; first compound 0.0002 µM) was 0.364 and the relative viability (NCI-H1975; first compound 0.000632 µM) was 0.24. The relative viability (NCI-H1975; first compound 0.002 µM) was 0.272, the relative viability (NCI-H1975; first compound 0.006325 µM) was 0.155 and the relative viability (NCI-H1975; first compound 0.02 µM) was 0.181. The relative viability (BEN; first compound 0.0002 µM) was 0.0838, the relative viability (BEN; first compound 0.000632 µM) was 0.377 and the relative viability (BEN; first compound 0.002 µM) was 0.373. For the same molecule, the relative viability (BEN; first compound 0.006325 µM) was 0.172, the relative viability (BEN; first compound 0.02 µM) was 0.116 and the relative viability (NCI-H2342; first compound 0.0002 µM) was 0.673. The relative viability (NCI-H2342; first compound 0.000632 µM) was 0.677, the relative viability (NCI-H2342; first compound 0.002 µM) was 0.673 and the relative viability (NCI-H2342; first compound 0.006325 µM) was 0.462. It also gave a relative viability (NCI-H2342; first compound 0.02 µM) of 0.4, a relative viability (NCI-H2023; first compound 0.0002 µM) of 0.682 and a relative viability (NCI-H2023; first compound 0.000632 µM) of 0.346. It also gave a relative viability (NCI-H2023; first compound 0.002 µM) of 0.113, a relative viability (NCI-H2023; first compound 0.006325 µM) of 0.105 and a relative viability (NCI-H2023; first compound 0.02 µM) of 0.0645. For the same molecule, the relative viability (NCI-H1734; first compound 0.0002 µM) was 0.213, the relative viability (NCI-H1734; first compound 0.000632 µM) was 0.197 and the relative viability (NCI-H1734; first compound 0.002 µM) was 0.175. For the same molecule, the relative viability (NCI-H1734; first compound 0.006325 µM) was 0.161, the relative viability (NCI-H1734; first compound 0.02 µM) was 0.14 and the relative viability (NCI-H1563; first compound 0.0002 µM) was 0.518. For the same molecule, the relative viability (NCI-H1563; first compound 0.000632 µM) was 0.522, the relative viability (NCI-H1563; first compound 0.002 µM) was 0.515 and the relative viability (NCI-H1563; first compound 0.006325 µM) was 0.457. For the same molecule, the relative viability (NCI-H1563; first compound 0.02 µM) was 0.408, the relative viability (NCI-H441; first compound 0.0002 µM) was 0.294 and the relative viability (NCI-H441; first compound 0.000632 µM) was 0.288. For the same molecule, the relative viability (NCI-H441; first compound 0.002 µM) was 0.3, the relative viability (NCI-H441; first compound 0.006325 µM) was 0.257 and the relative viability (NCI-H441; first compound 0.02 µM) was 0.253. The relative viability (NCI-H1651; first compound 0.0002 µM) was 0.821, the relative viability (NCI-H1651; first compound 0.000632 µM) was 0.842 and the relative viability (NCI-H1651; first compound 0.002 µM) was 0.258. It also gave a relative viability (NCI-H1651; first compound 0.006325 µM) of 0.27, a relative viability (NCI-H1651; first compound 0.02 µM) of 0.12 and a relative viability (COR-L23; first compound 0.0002 µM) of 0.632. It also gave a relative viability (COR-L23; first compound 0.000632 µM) of 0.622, a relative viability (COR-L23; first compound 0.002 µM) of 0.131 and a relative viability (COR-L23; first compound 0.006325 µM) of 0.128. For the same molecule, the relative viability (COR-L23; first compound 0.02 µM) was 0.101, the relative viability (NCI-H1355; first compound 0.0002 µM) was 0.784 and the relative viability (NCI-H1355; first compound 0.000632 µM) was 0.66. It also gave a relative viability (NCI-H1355; first compound 0.002 µM) of 0.599, a relative viability (NCI-H1355; first compound 0.006325 µM) of 0.255 and a relative viability (NCI-H1355; first compound 0.02 µM) of 0.194. It also gave a relative viability (NCI-H1793; first compound 0.0002 µM) of 0.174, a relative viability (NCI-H1793; first compound 0.002 µM) of 0.238 and a relative viability (NCI-H1793; first compound 0.006325 µM) of 0.177. For the same molecule, the relative viability (NCI-H1793; first compound 0.02 µM) was 0.134, the relative viability (CAL-12T; first compound 0.0002 µM) was 0.413 and the relative viability (CAL-12T; first compound 0.000632 µM) was 0.252. For the same molecule, the relative viability (CAL-12T; first compound 0.002 µM) was 0.199, the relative viability (CAL-12T; first compound 0.006325 µM) was 0.168 and the relative viability (CAL-12T; first compound 0.02 µM) was 0.136. It also gave a relative viability (NCI-H358; first compound 0.0002 µM) of 0.314, a relative viability (NCI-H358; first compound 0.000632 µM) of 0.305 and a relative viability (NCI-H358; first compound 0.002 µM) of 0.135. For the same molecule, the relative viability (NCI-H358; first compound 0.006325 µM) was 0.12 and the relative viability (NCI-H358; first compound 0.02 µM) was 0.098.
